According to patent publication US12503444B2, “Compound containing benzene ring and application thereof” (WUHAN LL SCIENCE AND TECHNOLOGY DEVELOPMENT CO., LTD., priority 2019, dated 2025):
Where two headings read alike, the source gives them in different places.

What was measured:
[1] = In vitro metabolic stability, liver microsome incubation (rat); type: in vitro ADME; details: rat, 1 mg/mL liver microsome protein, 37° C., read-out: T1/2 in rat liver microsome min
Description: (§1) The in vitro metabolic stability of the compounds disclosed herein was determined through incubation of liver microsomes of various species. A proper amount of test compound was added into a liver microsome reaction system (1 mg/mL liver microsome protein, 25 U/mL glucose-6 phosphate dehydrogenase, 1 mM NADP, 6 mM D-glucose 6-phosphate and 5 mM MgCl2), and then the mixture was incubated in a water bath kettle at 37° C. to start the reaction. At each time point, 100 μL of the reaction system was added into a centrifuge tube containing 400 μL of internal standard working solution (containing a 200 ng/mL solution of dexamethasone, diclofenac, tolbutamide and labetalol in acetonitrile) precooled at 0° C. so as to stop the reaction, and the mixture was then centrifuged at 10,000 g for 10 min at 4° C. The supernatant was collected for LC-MS assay so as to obtain the values of in vitro metabolic half-life of the test compounds in liver microsomes of various species.

[2] = biological target: T1, hP2X4 (human purinergic P2X receptor subtype 4) (Homo sapiens, UniProt Q99571); test: FLIPR assay of intracellular calcium increase induced by activation of hP2X4 expressed in HEK293 cells (agonist BZ-ATP 2.5 μM); type: cell-based; details: HEK293 cells stably expressing hP2X4, FLIPR, read-out: P2X4 IC50
T1 sequence (Q99571 1-404 isoform Q99571-2): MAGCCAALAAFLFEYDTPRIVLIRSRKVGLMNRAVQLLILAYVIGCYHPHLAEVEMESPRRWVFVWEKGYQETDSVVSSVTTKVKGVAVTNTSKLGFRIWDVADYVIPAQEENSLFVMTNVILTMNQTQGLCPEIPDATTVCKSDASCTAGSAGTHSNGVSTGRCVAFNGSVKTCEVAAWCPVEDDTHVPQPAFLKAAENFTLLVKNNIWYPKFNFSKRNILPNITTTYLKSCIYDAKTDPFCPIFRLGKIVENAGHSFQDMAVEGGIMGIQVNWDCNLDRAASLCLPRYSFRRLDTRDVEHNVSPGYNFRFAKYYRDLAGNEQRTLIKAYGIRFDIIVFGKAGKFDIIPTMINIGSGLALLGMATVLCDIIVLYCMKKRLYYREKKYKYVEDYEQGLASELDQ
In short: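 Inhibition of the calcium signal was measured by FLIPR after a 2.5 μM final BZ-ATP challenge, with readings every second over 2 min. Stable hP2X4-HEK293 cells were dye-loaded (Calcium 6, 37° C, 1.5 h) and equilibrated with test compound for 30 min at room temperature beforehand.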

[3] = In vitro cytotoxicity assay in HepG2 cells, CCK-8 method; details: human
Description: In vitro cytotoxicity assay for the compounds disclosed herein was performed in HepG2 cells using the CCK-8 method. HepG2 cells (Beina Bio) in the logarithmic growth phase were collected, the concentration of cell suspension was adjusted, and then the cells were plated on a 96-well cell culture plate at 50,000 cells/well. The cells were then incubated overnight in a cell incubator (5%/humidity, 37° C.), and after 80-90% cell confluence was achieved, test compounds or vehicle (DMSO) at various concentration gradients were added after medium change. The resulting mixture was incubated in the cell incubator (5% humidity, 37° C.) for 48 h. After the treatment, the medium in the plate was discarded. The plate was washed twice with PBS, added with CCK-8 working solution (Beyotime) at 100 μL per well, and then incubated at 37° C. for 1.5 h away from the light. Absorbance at OD450 nm was measured for each well on a microplate reader, and CC50 value of each compound was analyzed and calculated.

[4] = In vitro metabolic stability, liver microsome incubation (human); type: in vitro ADME; details: human, liver microsomes, 1 mg/mL liver microsome protein, 37° C., read-out: T1/2 in human liver microsome min
Description: as §1

[5] = In vitro metabolic stability, liver microsome incubation (guinea pig); type: in vitro ADME; details: guinea pig, liver microsomes; 1 mg/mL liver microsome protein, 37° C.; read-out: T1/2 in guinea pig liver microsome min
Description: as §1

[6] = system: Male Dunkin Hartley guinea pigs; test: Citric acid only cough model in guinea pigs; type: in vivo; details: guinea pig, 17.5% citric acid
Description: Male Dunkin Hartley guinea pigs (300-350 g) were placed in an animal atomization box, and then the door of the atomization box was closed while the ultrasonic atomizer (Guangdong Yuehua) was turned on. 17.5% citric acid gas was introduced into the atomization box at a maximum atomization rate (about 2 mL/min) for 20 s, and coughs of the animals within 10 min were continuously observed from the time of the start of atomization. During the 10-min observation, coughs of the animals needed to be counted manually, and the number of coughs were judged according to cough postures of the guinea pigs, such as abdominal twitching, mouth opening, and head inclining downward abruptly. The number of coughs during the first 5 min and that during 10 min were recorded, and the cough latency of the guinea pigs, namely the time from the initiation of citric acid induction to the appearance of the 1st cough, was also recorded.
Cough inhibition rate Vs vehicle represents the percentage of reduction
[formula] in the number of coughs in the administration group compared to the vehicle group upon citric acid challenge; Cough inhibition rate Vs baseline represents the percentage of reduction
[formula] in the number of coughs in the administration group before and after administration.

[7] = 60 mg/kg group, before administration (baseline)

Row | Structure (SMILES) | half-life ([1]; liver microsomes) | IC50 ([2]; numeric values) | CC50 at 48 h [3] | half-life [4] | IC50 ([2]; class symbols) | also measured
1 | NS(=O)(=O)c1cc(NC(=O)Cc2ccccc2Cl)cc2n[nH]cc12 [Compound 2, 2-(2-chlorophenyl)-N-(4-sulfamoyl-2H-indazol-6-yl)acetamide] | 0.809 h | 0.0054 µM | > 200 µM | 2.57 h |  | half-life [5]: 3.54 h
2 | CCCn1cc2c(S(N)(=O)=O)cc(NC(=O)Cc3ccccc3Cl)cc2n1 [Compound 5-A, 2-(2-chlorophenyl)-N-(2-propyl-4-sulfonylamino-2H-indazol-6-yl)acetamide] | 2.37 h | 0.00524 µM | > 200 µM | 5.96 h |  | half-life [5]: 0.0978 h
3 | CC(C)CCn1cc2c(S(N)(=O)=O)cc(NC(=O)Cc3ccccc3Cl)cc2n1 [Compound 8-A, 2-(2-chlorophenyl)-N-(2-isopentyl-4-sulfamoyl-2H-indazol-6-yl)acetamide] |  | 0.0139 µM | > 200 µM | 0.584 h |  | 
4 | NS(=O)(=O)c1cc(NC(=O)Cc2ccccc2Cl)cc2nn(CC(F)F)cc12 [Compound 12-A, 2-(2-chlorophenyl)-N-(2-(2,2-difluoroethyl)-4-sulfamoyl-2H-indazol-6-yl)acetamide] |  | 0.031 µM | > 200 µM |  |  | half-life ([4]; symbol NA): > 106 h
5 | NS(=O)(=O)c1cc(NC(=O)Cc2ccccc2Cl)cc2c1cnn2CC1CCC1 [Compound 24-B, 2-(2-chlorophenyl)-N-(1-(cyclobutylmethyl)-4-sulfamoyl-1H-indazol-6-yl)acetamide] | 0.768 h |  | > 200 µM | 1.84 h | ≤ 0.01 µM | half-life [5]: 2.41 h
6 | CC(C)OCCn1cc2c(S(N)(=O)=O)cc(NC(=O)Cc3ccccc3Cl)cc2n1 [Compound 26-A, 2-(2-chlorophenyl)-N-(2-(2-isopropoxyethyl)-4-sulfamoyl-2H-indazol-6-yl)acetamide] |  | 0.0061 µM | > 200 µM | 2.09 h |  | 
7 | COc1ccc(Cn2cc3c(S(N)(=O)=O)cc(NC(=O)Cc4ccccc4Cl)cc3n2)cc1 [Compound 35-A, 2-(2-chlorophenyl)-N-(2-(4-methoxybenzyl)-4-sulfamoyl-2H-indazol-6-yl)acetamide] |  |  | > 200 µM | 6.21 h | 0.01 to 0.05 µM | 
8 | COc1ccc(Cn2ncc3c(S(N)(=O)=O)cc(NC(=O)Cc4ccccc4Cl)cc32)cc1 [Compound 35-B, 2-(2-chlorophenyl)-N-(1-(4-methoxybenzyl)-4-sulfamoyl-1H-indazol-6-yl)acetamide] |  |  | > 200 µM | 4.66 h | 0.01 to 0.05 µM | 
9 | NS(=O)(=O)c1cc(NC(=O)Cc2ccccc2Cl)cc2c1cnn2-c1ccc(F)cc1 [Compound 44, 2-(2-chlorophenyl)-N-(1-(4-fluorophenyl)-4-sulfamoyl-1H-indazol-6-yl)acetamide] |  | 0.0368 µM |  | 5.08 h |  | half-life ([1]; microsomes): 1.53 h; half-life [5]: 1.2 h
10 | NS(=O)(=O)c1cc(NC(=O)Cc2ccccc2Cl)cc2cn(CC3CC3)nc12 [Compound 47, 2-(2-chlorophenyl)-N-(2-(cyclopropylmethyl)-7-sulfamoyl-2H-indazol-5-yl)acetamide] |  | 0.017 µM | > 200 µM | 13.1 h |  | 
11 | NS(=O)(=O)c1cc(NC(=O)Cc2ccccc2Cl)cc2nc(-c3ccccc3)[nH]c12 [Compound 53, 2-(2-chlorophenyl)-N-(2-phenyl-7-sulfamoyl-1H-benzo[d]imidazol-5-yl)acetamide] | 0.753 h |  |  | 3.79 h | 0.2 to 5 µM | half-life [5]: 0.154 h
12 | NS(=O)(=O)c1cc(NC(=O)Cc2ccccc2Cl)cc2nn(Cc3ccc(F)cc3)cc12 [Compound 88, 2-(2-chlorophenyl)-N-(2-(4-fluorobenzyl)-4-sulfamoyl-2H-indazol-6-yl)acetamide] | 2.07 h |  | > 200 µM | 8.54 h | ≤ 0.01 µM | half-life [5]: 2 h
13 | Nc1ccc(Cn2cc3c(S(N)(=O)=O)cc(NC(=O)Cc4ccccc4Cl)cc3n2)cn1 [Compound 101, N-(2-((6-aminopyridin-3-yl)methyl)-4-sulfamoyl-2H-indazol-6-yl)-2-(2-chlorophenyl)acetamide] |  |  |  | 1.86 h | 0.01 to 0.05 µM | 
14 | Nc1ccc(Cn2ncc3c(S(N)(=O)=O)cc(NC(=O)Cc4ccccc4Cl)cc32)cn1 [Compound 101A, N-(1-((6-aminopyridin-3-yl)methyl)-4-sulfamoyl-1H-indazol-6-yl)-2-(2-chlorophenyl)acetamide] |  |  |  | 1.19 h | 0.01 to 0.05 µM | 
15 | NS(=O)(=O)c1cc(NC(=O)Cc2ccccc2Cl)cc2nn(CC3CCOC3)cc12 (stereo not drawn) [Compound 110, 2-(2-chlorophenyl)-N-(4-sulfamoyl-2-((tetrahydrofuran-3-yl)methyl)-2H-indazol-6-yl)acetamide] | 1.15 h |  |  | 7.18 h | 0.05 to 0.2 µM | 
16 | NS(=O)(=O)c1cc(NC(=O)Cc2ccccc2Cl)cc2c1cnn2CC1CCOC1 (stereo not drawn) [Compound 110A, 2-(2-chlorophenyl)-N-(4-sulfamoyl-1-((tetrahydrofuran-3-yl)methyl)-1H-indazol-6-yl)acetamide] | 0.335 h |  |  | 0.882 h | 0.2 to 5 µM | 
17 | NS(=O)(=O)c1cc(NC(=O)Cc2ccccc2Cl)cc2nn(CC3CCCO3)cc12 (stereo not drawn) [Compound 120, 2-(2-chlorophenyl)-N-(4-sulfamoyl-2-((tetrahydrofuran-2-yl)methyl)-2H-indazol-6-yl)acetamide] | 0.226 h |  |  | 1.06 h | 0.05 to 0.2 µM | 
18 | NS(=O)(=O)c1cc(NC(=O)Cc2ccccc2Cl)cc2c1cnn2CC1CCCO1 (stereo not drawn) [Compound 120A, 2-(2-chlorophenyl)-N-(4-sulfamoyl-1-((tetrahydrofuran-2-yl)methyl)-1H-indazol-6-yl)acetamide] | 0.137 h |  |  | 0.371 h | 0.05 to 0.2 µM | 
19 | CCC(F)(F)n1cc2c(S(N)(=O)=O)cc(NC(=O)Cc3ccccc3Cl)cc2n1 [Compound 133, 2-(2-chlorophenyl)-N-(2-(1,1-difluoropropyl)-4-sulfamoyl-2H-indazol-6-yl)acetamide] | 2.26 h |  | > 100 µM | 25 h | 0.01 to 0.05 µM | 
20 | C=CC(F)(F)n1cc2c(S(N)(=O)=O)cc(NC(=O)Cc3ccccc3Cl)cc2n1 [Compound 134, 2-(2-chlorophenyl)-N-(2-(1,1-difluoroallyl)-4-sulfamoyl-2H-indazol-6-yl)acetamide] | 3.22 h |  |  | 13.7 h | 0.01 to 0.05 µM | 
21 | NS(=O)(=O)c1cc(NC(=O)Cc2ccccc2Cl)cc2nn(CC3CCOCC3)cc12 [Compound 141, 2-(2-chlorophenyl)-N-(4-sulfamoyl-2-((tetrahydro-2H-pyran-4-yl)methyl)-2H-indazol-6-yl)acetamide] | 0.226 h |  |  | 1.07 h | 0.05 to 0.2 µM | 
22 | COc1ccc2c(c1)[C@]13CCCC[C@@H]1[C@H](C2)N(C)CC3 [Dextromethorphan, dextromethorphan, reference compound] |  |  |  |  |  | Cough inhibition rate Vs vehicle (%) ([6]; 60 mg/kg): 33.95%; Cough latency [6, 7]: 73.43 s; Mean number of coughs [6, 7]: 18.57; Cough latency ([6]; 60 mg/kg, after administration): 154.29 s; Mean number of coughs ([6]; 60 mg/kg, after administration): 12.71; Cough inhibition rate Vs baseline (%) ([6]; 60 mg/kg, before vs after administration): 31.54%
